Source: ChEMBL document CHEMBL1255562, “6,7-Dihydroxy-4-phenylcoumarin as inhibitor of aldose reductase 2” (Bioorg Med Chem Lett, 2010)

How the values were obtained:
[1] = molecular target: Aldo-keto reductase family 1 member B1 (Homo sapiens, UniProt P15121); assay: Inhibition human recombinant […] by spectrophotometric analysis
[2] = Inhibition kidney aldose reductase 2 by spectrophotometric analysis
Sorbitol dehydrogenase = molecular target: T1, Sorbitol dehydrogenase (Homo sapiens, UniProt Q00796); assay: Inhibition sorbitol dehydrogenase by spectrophotometric analysis
T1 sequence (Q00796 whole entry): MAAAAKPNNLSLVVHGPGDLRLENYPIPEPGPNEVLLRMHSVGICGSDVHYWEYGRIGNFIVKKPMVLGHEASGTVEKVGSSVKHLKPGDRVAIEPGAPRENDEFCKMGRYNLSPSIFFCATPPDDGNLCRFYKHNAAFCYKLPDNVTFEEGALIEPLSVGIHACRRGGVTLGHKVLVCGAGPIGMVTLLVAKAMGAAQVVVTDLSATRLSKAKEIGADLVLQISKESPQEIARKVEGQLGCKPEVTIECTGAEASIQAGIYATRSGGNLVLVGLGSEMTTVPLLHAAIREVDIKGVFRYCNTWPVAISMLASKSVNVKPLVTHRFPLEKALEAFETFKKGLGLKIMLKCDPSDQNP

[3] = Selectivity index, ratio of IC50 for sorbitol dehydrogenase to IC50 for kidney aldose reductase 2
[4] = Selectivity index, ratio of IC50 for human recombinant […] to IC50 for kidney aldose reductase 2
Rattus norvegicus = species: Rattus norvegicus; assay: Reduction of galactitol accumulation in Wistar rat lens after 24 hrs; assay type: functional, tissue-based; details: Lens of camera-type eye

| IC50 [1] [µM] | IC50 [2] [µM] | IC50 (Sorbitol dehydrogenase) [µM] | Ratio IC50 [3] | Ratio IC50 [4] | Compound | Activity (Rattus norvegicus) |
| --- | --- | --- | --- | --- | --- | --- |
| 20.8 | 142 | 163 | 1.15 | 0.15 | O=C(O)Cc1cc(=O)oc2cc(O)ccc12 |  |
| 63.3 | 53.4 | 335 | 6.27 | 1.19 | O=C(O)Cc1cc(=O)oc2cc(O)c(O)cc12 |  |
| 66.3 | 9.6 | 288 | 30 | 6.9 | O=c1cc(-c2ccccc2)c2cc(O)c(O)cc2o1 | Dose-dependent effect |
| 2.4 | 36.7 | 70.7 | 1.93 | 0.07 | O=c1cc(-c2ccccc2)c2ccc(O)cc2o1 |  |
|  | 1.4 | 67.7 |  |  | CC(/C=C1\SC(=S)N(CC(=O)O)C1=O)=C\c1ccccc1 |  |
| 62 | 172 | 106 | 0.62 | 0.35 | O=c1oc2ccccc2cc1O [3-HYDROXYCOUMARIN] |  |
| 64.4 | 38.3 | 212 | 5.54 | 1.68 | Cc1cc(=O)oc2cc(O)c(O)cc12 [4-METHYLESCULETIN] |  |
| 171 | 156 | > 400 | > 2.56 | 1.1 | O=c1ccc2cc(O)ccc2o1 [6-HYDROXYCOUMARIN] |  |
| > 500 | > 400 | > 400 |  |  | O=c1ccc2ccccc2o1 [COUMARIN] |  |
| 67.2 | 36.5 | 82.9 | 2.27 | 1.84 | O=c1ccc2cc(O)c(O)cc2o1 [ESCULETIN] |  |
|  |  | 124 |  |  | COc1ccc2ccc(=O)oc2c1 [HERNIARIN] |  |
| 24.5 | 89.9 | 153 | 1.7 | 0.27 | Cc1cc(=O)oc2cc(O)ccc12 [HYMECROMONE] |  |
| 56.2 | 101 | > 250 | > 2.48 | 0.56 | COc1cc2oc(=O)ccc2cc1O [ISOSCOPOLETIN] |  |
| 74.4 | 46 | 137 | 2.98 | 1.62 | COc1cc2ccc(=O)oc2cc1O [SCOPOLETIN] |  |
| 22.9 | 85.7 | 120 | 1.4 | 0.27 | O=c1ccc2ccc(O)cc2o1 [UMBELLIFERONE] |  |

| Compound | IC50 [1] [µM] | IC50 [2] [µM] | IC50 (Sorbitol dehydrogenase) [µM] | Ratio IC50 [3] | Ratio IC50 [4] | Activity (Rattus norvegicus) |
| --- | --- | --- | --- | --- | --- | --- |
| O=c1cc(O)c2ccccc2o1 [4-HYDROXYCOUMARINS] | > 400 | 40.5 | > 400 | > 9.88 | > 9.88 |  |
